Data from the supplement of paper PMC6045584.
± gives the standard deviation of the averaged measurements.

Legend:
SALINOMYCIN = compound: CC[C@@H](C(=O)[C@@H](C)[C@@H](O)[C@H](C)[C@@H]1O[C@@H]([C@@H](CC)C(=O)O)CC[C@@H]1C)[C@H]1O[C@]2(C=C[C@@H](O)[C@]3(CC[C@@](C)([C@H]4CC[C@](O)(CC)[C@H](C)O4)O3)O2)[C@H](C)C[C@@H]1C [SALINOMYCIN]; test: surviving fraction relative to DMSO-only wells; higher = less growth inhibition; details: exposure time: 5 days
Outline: (§1)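 At 250–500 cells per well in 384-well plates, log-phase tumour cell lines were seeded and, 24 hours on, exposed continuously for five days to inhibitors at 0.5, 1, 5, 10, 50, 100, 500 and 1000 nM. Viability readout was CellTiter-Glo luminescence, reported as surviving fraction normalised to the median of DMSO-only wells.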

FLAVOPIRIDOL = compound: CN1CC[C@H](c2c(O)cc(O)c3c(=O)cc(-c4ccccc4Cl)oc23)[C@H](O)C1 [FLAVOPIRIDOL]; test: as above; details: exposure time: 5 days
Outline: as §1

Row | Test System | surviving fraction (SALINOMYCIN; 0.5 nM) | surviving fraction (SALINOMYCIN; 1 nM) | surviving fraction (SALINOMYCIN; 5 nM) | surviving fraction (SALINOMYCIN; 10 nM) | surviving fraction (SALINOMYCIN; 50 nM) | surviving fraction (SALINOMYCIN; 100 nM) | surviving fraction (SALINOMYCIN; 500 nM) | surviving fraction (SALINOMYCIN; 1000 nM) | surviving fraction (FLAVOPIRIDOL; 0.5 nM) | surviving fraction (FLAVOPIRIDOL; 1 nM) | surviving fraction (FLAVOPIRIDOL; 5 nM) | surviving fraction (FLAVOPIRIDOL; 10 nM) | surviving fraction (FLAVOPIRIDOL; 50 nM) | surviving fraction (FLAVOPIRIDOL; 100 nM) | surviving fraction (FLAVOPIRIDOL; 500 nM) | surviving fraction (FLAVOPIRIDOL; 1000 nM)
1 | HCC1395 BREAST | 1.06 ± 0.1 | 1.26 ± 0.26 | 1.17 ± 0.11 | 1.05 ± 0.15 | 1.16 ± 0.13 | 1.11 ± 0.041 | 0.843 ± 0.13 | 0.751 ± 0.16 | 1 ± 0.21 | 1.13 ± 0.062 | 1.2 ± 0.097 | 1.311 ± 0.006 | 1.3 ± 0.16 | 0.992 ± 0.14 | 0.51 ± 0.36 | 0.419 ± 0.19
2 | HCC1806 BREAST | 0.957 ± 0.25 | 0.695 ± 0.59 | 0.819 ± 0.58 | 0.709 ± 0.61 | 0.965 ± 0.17 | 0.873 ± 0.04 | 0.33 ± 0.056 | 0.223 ± 0.0067 | 0.833 ± 0.14 | 0.959 ± 0.059 | 1.03 ± 0.08 | 1.06 ± 0.062 | 0.586 ± 0.038 | 0.093 ± 0.0078 | 0.0207 ± 0.00058 | 0.0217 ± 0.00058
3 | HCC1954 BREAST | 0.944 ± 0.29 | 0.82 ± 0.39 | 0.919 ± 0.36 | 1.03 ± 0.088 | 0.953 ± 0.011 | 0.725 ± 0.04 | 0.295 ± 0.0032 | 0.172 ± 0.023 | 1.16 ± 0.0025 | 1.12 ± 0.063 | 1.49 ± 0.18 | 1.12 ± 0.23 | 0.361 ± 0.1 | 0.0465 ± 0.0057 | 0.0345 ± 0.0014 | 0.0318 ± 0.0039
4 | HCT15 LARGE INTESTINE | 0.933 ± 0.022 | 0.843 ± 0.059 | 0.894 ± 0.028 | 0.589 ± 0.016 | 1.03 ± 0.041 | 0.964 ± 0.015 | 0.893 ± 0.032 | 0.442 ± 0.029 | 1.06 ± 0.085 | 0.963 ± 0.12 | 0.991 ± 0.13 | 0.92 ± 0.12 | 0.45 ± 0.035 | 0.103 ± 0.013 | 0.0417 ± 0.0025 | 0.0417 ± 0.0015
5 | HELA CERVIX | 0.974 ± 0.053 | 0.936 ± 0.068 | 0.97 ± 0.059 | 0.906 ± 0.041 | 1.03 ± 0.06 | 0.885 ± 0.056 | 0.942 ± 0.056 | 0.55 ± 0.045 | 0.987 ± 0.041 | 0.962 ± 0.045 | 1.03 ± 0.086 | 0.936 ± 0.018 | 1.16 ± 0.053 | 0.691 ± 0.027 | 0.0347 ± 0.001 | 0.0268 ± 0.00029
6 | HOS BONE | 0.99 ± 0.0076 | 0.969 ± 0.0052 | 0.997 ± 0.023 | 0.966 ± 0.0082 | 1.03 ± 0.012 | 0.858 ± 0.032 | 0.0367 ± 0.0031 | 0.0627 ± 0.019 | 1.02 ± 0.018 | 1.03 ± 0.011 | 1.034 ± 0.01 | 1.04 ± 0.019 | 0.9813 ± 0.0095 | 0.352 ± 0.02 | 0.0367 ± 0.0072 | 0.035 ± 0.003
7 | HOSMNG BONE | 0.987 ± 0.1 | 0.945 ± 0.13 | 1.03 ± 0.086 | 0.985 ± 0.15 | 1.05 ± 0.13 | 0.993 ± 0.18 | 0.909 ± 0.09 | 0.511 ± 0.12 | 0.977 ± 0.05 | 0.991 ± 0.049 | 1 ± 0.011 | 0.981 ± 0.024 | 1.01 ± 0.079 | 0.498 ± 0.021 | 0.059 ± 0.007 | 0.0577 ± 0.0065
8 | HSSYII SYNOVIAL | 0.892 ± 0.033 | 0.842 ± 0.027 | 0.864 ± 0.043 | 0.582 ± 0.026 | 0.94 ± 0.017 | 0.743 ± 0.033 | 0.0705 ± 0.0015 | 0.0267 ± 0.0019 | 0.999 ± 0.021 | 0.993 ± 0.025 | 1.01 ± 0.083 | 0.907 ± 0.037 | 0.564 ± 0.034 | 0.145 ± 0.017 | 0.0215 ± 0.0005 | 0.0212 ± 0.00058
9 | HT1080 SOFT TISSUE | 1.03 ± 0.034 | 1.02 ± 0.015 | 1.03 ± 0.024 | 1.05 ± 0.031 | 1.06 ± 0.03 | 1.03 ± 0.089 | 0.78 ± 0.035 | 0.557 ± 0.018 | 1.05 ± 0.027 | 1.05 ± 0.02 | 1.03 ± 0.029 | 1.016 ± 0.0044 | 0.4973 ± 0.0011 | 0.193 ± 0.024 | 0.061 ± 0.003 | 0.0633 ± 0.0021
10 | HU09 BONE | 1.06 ± 0.035 | 1.01 ± 0.019 | 1.12 ± 0.14 | 1.03 ± 0.091 | 1.04 ± 0.12 | 0.897 ± 0.077 | 0.476 ± 0.036 | 0.271 ± 0.0068 | 1.06 ± 0.12 | 1.08 ± 0.037 | 1.22 ± 0.14 | 1.08 ± 0.082 | 0.638 ± 0.051 | 0.0337 ± 0.0032 | 0.024 | 0.025 ± 0.0017
11 | HUO3N1 BONE | 1.01 ± 0.052 | 0.984 ± 0.073 | 1.01 ± 0.04 | 1.02 ± 0.071 | 0.844 ± 0.012 | 0.51 ± 0.023 | 0.167 ± 0.0067 | 0.151 ± 0.0097 | 1.07 ± 0.016 | 1 ± 0.022 | 1.14 ± 0.033 | 1.12 ± 0.03 | 1.26 ± 0.052 | 0.929 ± 0.077 | 0.0483 ± 0.0011 | 0.039 ± 0.0061
12 | JIMT1 BREAST | 0.96 ± 0.014 | 0.977 ± 0.021 | 0.979 ± 0.021 | 0.999 ± 0.021 | 0.988 ± 0.033 | 0.95 ± 0.013 | 0.51 ± 0.024 | 0.356 ± 0.02 | 1 ± 0.012 | 1.01 ± 0.033 | 1.05 ± 0.047 | 1.02 ± 0.035 | 0.809 ± 0.019 | 0.2 ± 0.029 | 0.0467 ± 0.0053 | 0.0375 ± 0.0027
13 | JURKAT HAEMATOPOIETIC AND LYMPHOID TISSUE | 1.08 ± 0.011 | 1.09 ± 0.028 | 1.03 ± 0.02 | 1.04 ± 0.042 | 0.815 ± 0.024 | 0.673 ± 0.018 | 0.23 ± 0.005 | 0.101 ± 0.0053 | 1.04 ± 0.018 | 1.07 ± 0.046 | 1.05 ± 0.026 | 1.04 ± 0.042 | 0.708 ± 0.022 | 0.119 ± 0.0035 | 0.031 ± 0.001 | 0.0303 ± 0.0011
14 | KPD BONE | 0.931 ± 0.046 | 0.942 ± 0.013 | 1 ± 0.064 | 0.979 ± 0.018 | 0.93 ± 0.032 | 0.7467 ± 0.005 | 0.235 ± 0.015 | 0.128 ± 0.016 | 0.881 ± 0.31 | 1.01 ± 0.074 | 1.08 ± 0.048 | 0.997 ± 0.03 | 0.525 ± 0.035 | 0.101 ± 0.015 | 0.031 ± 0.0017 | 0.0277 ± 0.006
15 | LM7 BONE | 1.01 ± 0.021 | 1.01 ± 0.068 | 1.06 ± 0.041 | 1.11 ± 0.065 | 1.05 ± 0.053 | 1.09 ± 0.051 | 0.588 ± 0.04 | 0.397 ± 0.02 | 1.06 ± 0.022 | 1.08 ± 0.096 | 1.15 ± 0.11 | 1.1 ± 0.091 | 0.824 ± 0.031 | 0.446 ± 0.016 | 0.0593 ± 0.0038 | 0.0543 ± 0.0029
16 | LNCAP PROSTATE | 0.833 ± 0.096 | 0.884 ± 0.07 | 0.818 ± 0.18 | 0.815 ± 0.11 | 0.643 ± 0.01 | 0.215 ± 0.013 | 0.0563 ± 0.005 | 0.0493 ± 0.0031 | 0.884 ± 0.014 | 0.917 ± 0.0082 | 0.849 ± 0.038 | 0.84 ± 0.015 | 0.409 ± 0.071 | 0.028 ± 0.0036 | 0.043 ± 0.0027 | 0.0397 ± 0.0011
17 | MCF7 BREAST | 0.853 ± 0.048 | 0.8602 ± 0.005 | 0.821 ± 0.025 | 0.815 ± 0.034 | 0.941 ± 0.02 | 0.908 ± 0.055 | 0.677 ± 0.014 | 0.348 ± 0.028 | 0.982 ± 0.083 | 0.973 ± 0.031 | 0.979 ± 0.032 | 0.865 ± 0.031 | 0.816 ± 0.038 | 0.167 ± 0.011 | 0.163 ± 0.024 | 0.157 ± 0.0056
18 | MDAMB134 BREAST | 1.05 ± 0.26 | 1.01 ± 0.22 | 0.995 ± 0.0042 | 1.08 ± 0.015 | 1.02 ± 0.069 | 1.05 ± 0.021 | 1.32 ± 0.041 | 1.04 ± 0.037 | 1 ± 0.019 | 0.991 ± 0.041 | 1.09 ± 0.037 | 1.13 ± 0.088 | 1.52 ± 0.23 | 0.977 ± 0.15 | 0.303 ± 0.016 | 0.2765 ± 0.0021
19 | MDAMB157 BREAST | 0.881 ± 0.017 | 0.904 ± 0.042 | 0.985 ± 0.073 | 0.99 ± 0.044 | 0.982 ± 0.078 | 0.819 ± 0.054 | 0.217 ± 0.043 | 0.139 ± 0.011 | 0.999 ± 0.025 | 0.921 ± 0.096 | 0.986 ± 0.073 | 0.927 ± 0.018 | 0.769 ± 0.022 | 0.3 ± 0.027 | 0.0433 ± 0.016 | 0.0383 ± 0.0076
20 | MDAMB231 BREAST | 0.9877 ± 0.006 | 0.9962 ± 0.0061 | 0.993 ± 0.011 | 0.983 ± 0.018 | 1 ± 0.057 | 0.953 ± 0.016 | 0.559 ± 0.011 | 0.425 ± 0.0083 | 0.99 ± 0.022 | 0.9902 ± 0.0098 | 1.02 ± 0.042 | 0.995 ± 0.039 | 0.833 ± 0.018 | 0.372 ± 0.028 | 0.0403 ± 0.0017 | 0.0366 ± 0.0017
